# Measured values as given in US20180327367A1, “MACROCYCLIC BROAD SPECTRUM ANTIBIOTICS” (priority 2015, published 2018).
# Like-named read-outs stand apart in the source and are kept apart here.
# Assays:
# Assay type in all cases: cell-based
# [1] = system: Methicillin Resistant Staphylococcus aureus strain USA 300, NRS384; experiment: Minimum inhibitory concentration, broth micro-dilution (CLSI), S. aureus; details: Staphylococcus aureus, MRSA / NRS 384 / USA300, 22 h, 35° C., 22 hours
# Procedure: (§1) In vitro antimicrobial activity of each compound was determined by measuring minimal inhibitor concentrations (MICs) using the broth micro-dilution technique as approved by the Clinical and Laboratory Standards Institute (CLSI) (Methods for Dilution Antimicrobial Susceptibility Tests for Bacteria that Grow Aerobically; Approved Standard—Eighth Edition. CLSI document M07-A8. Wayne, Pa.: Clinical and Laboratory Standards; 2009). Antibacterial activity was measure against three strains of bacteria: a Methicillin Resistant Staphylococcus aureus strain USA 300, NRS384 (S. aureus); a strain of Escherichia coli MC4100 harboring the IMP4213 (E. coli IMP), which results in increased outer-membrane permeability (B Martin and Silhavy T. Imp/OstA is required for cell envelope biogenesis in Escherichia coli. (2002) Molecular Microbiology, 45(5), 1289-1302), and Escherichia coli ATCC 25922 (E. coli), a clinically relevant Gram-negative strain. Cells were inoculated onto plates of Trypyticase Soy Agar or Luria Agar respectively and grown at 35° C. for 20 hours. Inocula suspensions were prepared by scraping cells into 1 mL of testing media (cation adjusted Mueller Hinton Broth supplemented with 0.002% v/v Tween-80) and diluting to a final OD600 nm of 0.01.
# (§2) Test compounds were prepared in DMSO at a concentration of 10 mg/mL. […] In protocol 2, the compound stocks were diluted into testing media at a concentration of 4 μg/mL and serial 2-fold dilutions were made in the same media, in 96-well U bottom microtiter dishes, for a total of 10 compound concentrations. In protocol 3, compound stocks were diluted into testing media at a concentration of 0.5 μg/mL, with serial 2-fold dilutions conducted as described above. […] Inocula suspensions were added to the 2-fold serial dilutions of test compounds to a final density of OD OD600 nm of 0.0005 and incubated at 35° C. for 22 hours.
# [2] = system: Escherichia coli MC4100 harboring the IMP4213 (E. coli IMP); experiment: microbe, parasite or virus in culture; details: Escherichia coli, 22 h, read-out: MIC (μg/mL) E. coli IMP, E. coli MC4100 IMP4213, increased outer-membrane permeability; 35° C., 22 hours
# Procedure: as §1, §2
# [3] = system: Escherichia coli ATCC 25922; experiment: Minimum inhibitory concentration, broth micro-dilution (CLSI), E. coli; details: Escherichia coli, ATCC25922, 22 h, 35° C., 22 hours
# Procedure: Cells were inoculated onto plates of Trypyticase Soy Agar or Luria Agar respectively and grown at 35° C. for 20 hours. Inocula suspensions were prepared by scraping cells into 1 mL of testing media (cation adjusted Mueller Hinton Broth supplemented with 0.002% v/v Tween-80) and diluting to a final OD600 nm of 0.01.
# as §2
# [4] = MRSA USA 300 NRS384, read-out: MIC (μg/mL) S. aureus
# [5] = E. coli ATCC 25922, read-out: MIC (μg/mL) E. coli
SMILES,"MIC [1, 4]",MIC [2],"MIC [3, 5]","MIC ([1]; read-out: MIC (μg/mL) S. aureus, MRSA USA 300 NRS384)","MIC ([3]; read-out: MIC (μg/mL) E. coli, E. coli ATCC 25922)"
Cc1cc(-c2ccc(CC(C)C)nn2)ccc1C(=O)N[C@@H](CCN)C(=O)N(C)[C@@H]1C(=O)N[C@@H](C)C(=O)N[C@H](C(=O)NCC#N)Cc2ccc(OCCN)c(c2)-c2cc1ccc2OCCN [Compound 180],1 µg/mL,0.38 µg/mL,8 µg/mL,,
Cc1cc(-c2ccc(CC(C)C)nc2)ccc1C(=O)N[C@@H](CCN)C(=O)N(C)[C@@H]1C(=O)N[C@@H](C)C(=O)N[C@H](C(=O)NCC#N)Cc2ccc(OCCN)c(c2)-c2cc1ccc2OCCN [Compound 181],0.13 µg/mL,0.031 µg/mL,2 µg/mL,,
CCCCCCCc1cc(C)c(C(=O)N[C@@H](CCN)C(=O)N(C)[C@@H]2C(=O)N[C@@H](C)C(=O)N[C@H](C(=O)NCC#N)Cc3ccc(OCCN)c(c3)-c3cc2ccc3OCCN)c(C)c1 [Compound 189],0.031 µg/mL,0.023 µg/mL,0.19 µg/mL,,
CCCCc1cccc(C(=O)N[C@@H](CCCN)C(=O)N(C)[C@@H]2C(=O)N[C@@H](C)C(=O)N[C@H](C(=O)NCC#N)Cc3ccc(OCCN)c(c3)-c3cc2ccc3OCCN)c1C [Compound 206],0.38 µg/mL,0.094 µg/mL,16 µg/mL,,
CCCCc1ccc(C)c(C(=O)N[C@@H](CCCN)C(=O)N(C)[C@@H]2C(=O)N[C@@H](C)C(=O)N[C@H](C(=O)NCC#N)Cc3ccc(OCCN)c(c3)-c3cc2ccc3OCCN)c1 [Compound 207],1.5 µg/mL,0.063 µg/mL,16 µg/mL,,
CCCCCCCCc1ccc(C(=O)N[C@@H](CCN)C(=O)N(C)[C@@H]2C(=O)N[C@@H](C)C(=O)N[C@H](C(=O)NCC#N)Cc3ccc(OCCN)c(c3)-c3cc2ccc3OCCN)c(Br)c1 [Compound 211],0.063 µg/mL,0.055 µg/mL,0.11 µg/mL,,
Cc1cc(-c2ccc(CC(C)C)cc2)ccc1C(=O)N[C@@H](CC(N)=O)C(=O)N(C)[C@@H]1C(=O)N[C@@H](C)C(=O)N[C@H](C(=O)NCC#N)Cc2ccc(OCCN)c(c2)-c2cc1ccc2OCCN [Compound 240],0.19 µg/mL,0.094 µg/mL,1.5 µg/mL,,
CCCCCCCCc1ccc(C(=O)N[C@@H](CCC(N)=O)C(=O)N(C)[C@@H]2C(=O)N[C@@H](C)C(=O)N[C@H](C(=O)NCC#N)Cc3ccc(OCCN)c(c3)-c3cc2ccc3OCCN)c(C)c1 [Compound 247],0.094 µg/mL,0.094 µg/mL,2 µg/mL,,
Cc1cc(-c2ccc(CC(C)C)cc2)ccc1C(=O)N[C@@H](CCC(N)=O)C(=O)N(C)[C@@H]1C(=O)N[C@@H](C)C(=O)N[C@H](C(=O)NCC#N)Cc2ccc(OCCN)c(c2)-c2cc1ccc2OCCN [Compound 248],0.19 µg/mL,0.094 µg/mL,1 µg/mL,,
CCCCCCCCc1ccc(C(=O)N[C@H](C)C(=O)N(C)[C@@H]2C(=O)N[C@@H](C)C(=O)N[C@H](C(=O)NCC#N)Cc3ccc(OCCN)c(c3)-c3cc2ccc3OCCN)c(C)c1 [Compound 251],4 µg/mL,4 µg/mL,8 µg/mL,,
CCCCCCCCc1ccc(C(=O)NCC(=O)N(C)[C@@H]2C(=O)N[C@@H](C)C(=O)N[C@H](C(=O)NCC#N)Cc3ccc(OCCN)c(c3)-c3cc2ccc3OCCN)c(C)c1 [Compound 252],0.25 µg/mL,0.023 µg/mL,2 µg/mL,,
C[C@@H]1NC(=O)[C@@H](N(C)C(=O)[C@H](CCO)NC(=O)c2ccc(-c3ccc(Cl)cc3)cc2)c2ccc(OCCN)c(c2)-c2cc(ccc2OCCN)C[C@@H](C(=O)NCC#N)NC1=O [Compound 259],0.5 µg/mL,0.25 µg/mL,64 µg/mL,,
Cc1cc(OCC2CCC(F)(F)CC2)ccc1C(=O)N[C@@H](CCN)C(=O)N(C)[C@@H]1C(=O)N[C@@H](C)C(=O)N[C@H](C(=O)NCC#N)Cc2ccc(OCCN)c(c2)-c2cc1ccc2OCCN [Compound 278],0.5 µg/mL,0.13 µg/mL,4 µg/mL,,
C[C@@H]1NC(=O)[C@@H](N(C)C(=O)[C@H](CCN)NC(=O)c2ccc(OCC(C)(C)C)cc2Cl)c2ccc(OCCN)c(c2)-c2cc(ccc2OCCN)C[C@@H](C(=O)NCC#N)NC1=O [Compound 279],0.13 µg/mL,0.02 µg/mL,0.5 µg/mL,,
C=CCC(C)(C)COc1ccc(C(=O)N[C@@H](CCN)C(=O)N(C)[C@@H]2C(=O)N[C@@H](C)C(=O)N[C@H](C(=O)NCC#N)Cc3ccc(OCCN)c(c3)-c3cc2ccc3OCCN)c(C)c1 [Compound 285],0.063 µg/mL,0.0078 µg/mL,0.75 µg/mL,,
Cc1cc(OCC2C[C@H]3CC[C@@H]2C3)ccc1C(=O)N[C@@H](CCN)C(=O)N(C)[C@@H]1C(=O)N[C@@H](C)C(=O)N[C@H](C(=O)NCC#N)Cc2ccc(OCCN)c(c2)-c2cc1ccc2OCCN (stereo partly drawn) [Compound 287],0.094 µg/mL,0.0078 µg/mL,0.38 µg/mL,,
CCCCCCCOc1ccc(C(=O)N[C@@H](CCN)C(=O)N(C)[C@@H]2C(=O)N[C@@H](C)C(=O)N[C@H](C(=O)NCC#N)Cc3ccc(OCCN)c(c3)-c3cc2ccc3OCCN)c(C)c1C [Compound 294],0.063 µg/mL,0.0078 µg/mL,0.25 µg/mL,,
C[C@@H]1NC(=O)[C@@H](N(C)C(=O)[C@H](CCN)NC(=O)c2ccc(OCC(C)(C)C)c3ccccc23)c2ccc(OCCN)c(c2)-c2cc(ccc2OCCN)C[C@@H](C(=O)NCC#N)NC1=O [Compound 296],0.047 µg/mL,0.031 µg/mL,2 µg/mL,,
CCCCCCOCc1ccc(C(=O)N[C@@H](CCN)C(=O)N(C)[C@@H]2C(=O)N[C@@H](C)C(=O)N[C@H](C(=O)NCC#N)Cc3ccc(OCCN)c(c3)-c3cc2ccc3OCCN)c(Cl)c1 [Compound 297],0.063 µg/mL,0.0078 µg/mL,1 µg/mL,,
CCCCCCCn1cc(C(=O)N[C@@H](CCN)C(=O)N(C)[C@@H]2C(=O)N[C@@H](C)C(=O)N[C@H](C(=O)NCC#N)Cc3ccc(OCCN)c(c3)-c3cc2ccc3OCCN)c(C)nc1=O [Compound 301],4 µg/mL,4 µg/mL,> 64 µg/mL,,
Cc1nc(C#CC2CCCCC2)ncc1C(=O)N[C@@H](CCN)C(=O)N(C)[C@@H]1C(=O)N[C@@H](C)C(=O)N[C@H](C(=O)NCC#N)Cc2ccc(OCCN)c(c2)-c2cc1ccc2OCCN [Compound 312],0.25 µg/mL,0.023 µg/mL,0.5 µg/mL,,
CCCCCCCc1ccc(C(=O)N[C@@H](CCN)C(=O)N(C)[C@@H]2C(=O)N[C@@H](C)C(=O)N[C@H](C(=O)NCC#N)Cc3ccc(O)c(c3)-c3cc2ccc3OCCN)c(C)c1 [Compound 314],0.078 µg/mL,0.023 µg/mL,0.44 µg/mL,,
CCCCCCCc1ccc(C(=O)N[C@@H](CCN)C(=O)N(C)[C@@H]2C(=O)N[C@@H](C)C(=O)N[C@H](C(=O)NCC#N)Cc3ccc(OCCN)c(c3)-c3cc2ccc3O)c(C)c1 [Compound 315],0.078 µg/mL,0.014 µg/mL,0.38 µg/mL,,
CCCCCCCCCCCCCC(=O)N[C@@H](CCN)C(=O)N(C)[C@@H]1C(=O)N[C@@H](C)C(=O)N[C@H](C(=O)NCC#N)Cc2ccc(OCC(=O)O)c(c2)-c2cc1ccc2OCCN [Compound 327],0.25 µg/mL,0.0078 µg/mL,2 µg/mL,,
CCCCCCCCCCCCCC(=O)N[C@@H](CCN)C(=O)N(C)[C@@H]1C(=O)N[C@@H](C)C(=O)N[C@H](C(=O)NCC#N)Cc2ccc(OCC(=O)OC(C)(C)C)c(c2)-c2cc1ccc2OCCN [Compound 328],1 µg/mL,0.25 µg/mL,4 µg/mL,,
CCCCCCc1ccc(S(=O)(=O)N[C@@H](CCN)C(=O)N(C)[C@@H]2C(=O)N[C@@H](C)C(=O)N[C@H](C(=O)NCC#N)Cc3ccc(OCCN)c(c3)-c3cc2ccc3OCCN)c(C)c1 [Compound 347],,0.063 µg/mL,,0.063 µg/mL,8 µg/mL
CCCCCCCCCCNCCS(=O)(=O)N[C@@H](CCCN)C(=O)N(C)[C@@H]1C(=O)N[C@@H](C)C(=O)N[C@H](C(=O)NCC#N)Cc2ccc(OCCN)c(c2)-c2cc1ccc2OCCN [Compound 349],0.016 µg/mL,0.13 µg/mL,8 µg/mL,,
CCCCCCCCCCNCCS(=O)(=O)N(C)[C@@H]1C(=O)N[C@@H](C)C(=O)N[C@H](C(=O)NCC#N)Cc2ccc(OCCN)c(c2)-c2cc1ccc2OCCN [Compound 351],1 µg/mL,> 4 µg/mL,> 64 µg/mL,,
